# Assay results published in paper PMC8147781, “Discovery of Pyrrolidine-2,3-diones as Novel Inhibitors of P. aeruginosa PBP3” (Antibiotics, 2021).
# Where two headings read alike, the source gives them in different places.
# How the values were obtained:
# [1] = molecular target: T1, PBP3 of P. aeruginosa (PaPBP3) (Pseudomonas aeruginosa, UniProt G3XD46); experiment: S2dfluo fluorescence transpeptidase assay; assay type: biochemical; details: 300 nM PaPBP3, 30 min preincubation, 37 °C; for IC50: read-out: IC50 Determination with PaPBP3, S2dfluo Assay
# T1 construct: P. aeruginosa PBP3 (amino acids 40 to 563); His-tag; made in house; host or cells: E. coli BL21 (DE3) Rosetta, plasmid pET41_PBP-3
# Experimental: The assays were carried out in the presence of 5% DMSO and 0.01% Triton X100 to avoid the formation of colloidal structures and adsorption of protein and/or compounds to surfaces. The Z’-factor determined for the assay was 0.73 ± 0.28, indicating the suitability and robustness of the assay for high throughput screening (HTS) (Figure 1B,C).
# The activity of soluble ^PaPBP3 (300 nM) was measured in the presence of 0.8 mM S2d, 1 mM D-alanine and 0.5 mM mBBr for 25 min by monitoring the increase in the fluorescence intensity of mBBr at Ex/Em: 394/490 nm using an Infinite M1000 microplate reader (Tecan, Männedorf, Switzerland). To test the effect of inhibitors, 100 µM or 0.8 to 100 µM of compounds diluted in 96% DMSO were incubated for 30 min and 450 rpm with 300 nM soluble PBP3. The incubation period was set to improve the binding of non-covalent inhibitors and 0.01% Triton X100 (Sigma-Aldrich, Taufkirchen, Germany) was added to prevent aggregation of compounds. The enzyme reaction was started by adding a substrate mix of 0.8 mM S2d and […]. The enzyme, compound and substrate mix were mixed 1:1, pipetted with a Liquidator 96 (Melter Toledo, Gießen, Germany) and the fluorescence intensity was directly monitored with an Infinite M1000 microplate reader (Tecan) at Ex/Em: 394/490 nm. The assay was performed in black, flat-bottom 96-well microplates (Greiner Bio-One, Kremsmünster, Austria) at 37 °C in Sorensen Phosphate Buffer (57 mM Na2HPO4 and 10 mM KH2PO4, pH 7.5 + 0.01% Triton X-100). The velocity of the PBP3 reaction was calculated in the presence of each concentration of compound and the velocity values were used to estimate IC50 by sigmoidal nonlinear regression, using Prism v.9 software (San Diego, CA, USA) and the velocity of the reaction at each concentration.
# E. coli Neumann = experiment: MIC broth microdilution, E. coli; assay type: cell-based; details: Escherichia coli; Table S3; read-out: MIC (µM) E. coli Neumann
# Experimental: (§1) MIC determination was performed via standard broth microdilution according to the Clinical & Laboratory Standards institute guidelines. Overnight colonies grown on BD-Columbia agar with 5% Sheep Blood (Becton Dickinson, Franklin Lakes, NJ, USA), were diluted in Mueller Hinton Broth 2 cation adjusted (MH+) medium (Thermo Fisher Scientific) to a concentration of 5 × 10^5 CFU/mL. Serial dilutions (1:2) of test compounds were incubated at 37 °C with 5 × 10^4 bacteria in a final volume of 100 μL. Sterile and growth controls in the presence of 1% DMSO and PMBN if the case, and the positive controls, aztreonam (AZT) and tigecycline (TIG) were included in the experiments (Table S4). The MICs were determined visually after 18 h at 37 °C and confirmed by the addition of 10% PrestoBlue (ThermoFisher Scientific) reagent according to the manufacture’s protocol. The fluorescence signal of PrestoBlue reagent was measured at Ex/Em: 550/595 nm after 30 min incubation at 37 °C using at a ClarioStar microplate reader (BMG Labtech). PrestoBlue reduction occurs in the presence of living cells and consequently turns red in colour and is highly fluorescent.
# [2] = system: K. pneumoniae clinical isolate; experiment: MIC broth microdilution, K. pneumoniae; assay type: cell-based; details: Klebsiella pneumoniae; Table S3
# Experimental: as §1
# A. baumannii ATCC15308 = experiment: MIC broth microdilution, A. baumannii; assay type: cell-based; details: 10 µg/mL PMBN
# Experimental: as §1
# S. pneumoniae = experiment: MIC broth microdilution, S. pneumoniae; assay type: cell-based; details: Streptococcus pneumoniae, read-out: MIC (µM) S. pneumoniae
# Experimental: as §1
# B. subtilis 168 = experiment: MIC broth microdilution, B. subtilis; assay type: cell-based; details: Bacillus subtilis, 168; Table S3
# Experimental: as §1
# S. aureus 133 = experiment: MIC broth microdilution, S. aureus; assay type: cell-based; details: Staphylococcus aureus, 133; Table S3
# Experimental: as §1
# [3] = system: T-lymphoblast CCRF-CEM cell line; experiment: Cytotoxicity assay (PrestoBlue), CCRF-CEM; details: for Cytotoxicity CCRF-CEM: CC50, 72 h; for cytotoxic potential at the tested cell lines: four cell lines: NRK-52E, Hep G2, CCRF-CEM, H9
# Experimental: (§2) We finally tested the cytotoxicity of the compounds against four eukaryotic cell lines (Table 2 and Table S5), NRK-52E, an epithelial kidney cell line of Rattus norvegicus; Hep G2, an human epithelial liver cell line; and two suspension cell lines: CCRF-CEM, a T lymphoblast; and H9, a cutaneous T lymphocyte cell line.
# (§3) Cell lines stored at −120 °C were thawed to 37 °C and resuspended in 10 mL of medium pre-warmed to 37 °C. Cells were pelleted at 300× g for 10 min, and then resuspended in fresh medium, seeded in a T-75 culture flask, and placed in a CO2 incubator (37 °C with 5% CO2 tension). Once the cells reached approximately 70–80% confluency, they were then passaged regularly. The adherent cell lines NRK52E, HepG2 and Huh 7 were washed once with 10 mL DPBS and detached with Trypsin-EDTA for 5 to 7 min and resuspended in 15 mL of the appropriate medium. The suspension cell line CCRF-CEM were diluted and resuspended in fresh RPMI 1640 PAN medium. To calculate the cell density, the cell resuspensions were diluted 1:6 with DPBS. Equal volumes of cell suspension and Trypan Blue were mixed and gently loaded into a haemocytometer (INCYTO, 31056 Republic of Korea). In each experiment, cell concentrations were adjusted to reach a concentration of 2.5 × 10^3 cell/well for NRK52E, 5 × 10^3 cell/well for HepG2, 6.2 × 10^4 cell/well for CCRF-CEM and 3 × 10^3 for H9. The cells were incubated with decreasing concentration of compounds (1 µL in 96% DMSO) for 72 h at 37 °C with 5% CO2 tension. Cycloheximide, a cytotoxic compound that interferes with the translocation step in eukaryotic protein synthesis was used as a control for the experiments. The assay was carried out in flat-bottom, transparent 96-well plates. Cell viability was determined using the PrestoBlue reagent (Thermo Fisher Scientific, Waltham, MA, USA) according to the manufacture’s protocol. First, 10× PrestoBlue was added to each well to obtain a 1× solution, and incubated at 37 °C for 45 min. Then, fluorescence was measured at Ex/Em: 550/595 nm using a ClarioStar microplate reader (BMG Labtech). Cytotoxicity was determined as the percentage of the difference in absorbance of the untreated sample to the treated sample. CC50 was calculated using the values obtained in each concentration using the sigmoidal dose-response by Prism v.8. The media used in each cell line is detailed in Table S6.
# [4] = system: H9, cutaneous T lymphocyte cell line; experiment: Cytotoxicity assay (PrestoBlue), H9; details: CC50, 72 h
# Experimental: as §2, §3
# T1 sequence (G3XD46 40-563): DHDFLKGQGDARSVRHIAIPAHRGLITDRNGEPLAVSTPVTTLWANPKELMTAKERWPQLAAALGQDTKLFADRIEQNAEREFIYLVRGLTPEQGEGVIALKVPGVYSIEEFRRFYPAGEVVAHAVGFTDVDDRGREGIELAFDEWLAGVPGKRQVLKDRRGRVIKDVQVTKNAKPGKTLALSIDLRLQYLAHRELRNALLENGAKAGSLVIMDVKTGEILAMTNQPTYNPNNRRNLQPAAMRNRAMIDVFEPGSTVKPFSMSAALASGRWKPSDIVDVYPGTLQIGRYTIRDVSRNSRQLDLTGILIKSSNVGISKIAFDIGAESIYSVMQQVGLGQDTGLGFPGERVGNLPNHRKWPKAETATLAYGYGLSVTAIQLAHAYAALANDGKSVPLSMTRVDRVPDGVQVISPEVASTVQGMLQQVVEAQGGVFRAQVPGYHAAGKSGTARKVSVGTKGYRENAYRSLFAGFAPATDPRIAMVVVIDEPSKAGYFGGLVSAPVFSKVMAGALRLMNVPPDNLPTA
Structure (SMILES),"IC50 Determination with PaPBP3, S2dfluo Assay [1]",IC50 [1] [µM],MIC (E. coli Neumann) [µM],MIC [2] [µM],MIC (µM) A. baumanii ATCC15308 (A. baumannii ATCC15308) [µM],MIC (S. pneumoniae; Table S3) [µM],MIC (B. subtilis 168) [µM],MIC (S. aureus 133) [µM],Cytotoxicity CCRF-CEM [3] [µM],Cytotoxicity effect (µM) T-lymphocyte H9 [4] [µM],cytotoxic potential at the tested cell lines [3],MIC (S. pneumoniae) [µM]
"O=C1NC(c2ccc(Cl)cc2)C(C(=O)c2ccc(Br)cc2)=C1O (stereo not drawn) [Compound 32, 4-(4-bromobenzoyl)-5-(4-chlorophenyl)-3-hydroxy-1,5-dihydropyrrol-2-one]",loss of the inhibitory effect,> 100,> 100,> 100,> 100,> 100,100,> 100,94 ± 6,> 100,,
O=C(C1=C(O)C(=O)N(Cc2nc3ccccc3[nH]2)C1c1ccc(Cl)cc1)c1ccc(Br)cc1 (stereo not drawn) [Compound 38],drastic loss of the inhibitory activity,100 ± 11,> 100,> 100,> 100,25,> 100,> 100,>100,> 100,,
"O=C(C1=C(O)C(=O)N(Cc2ccco2)C1c1ccc(Cl)cc1)c1ccc(Br)cc1 (stereo not drawn) [Compound 41, 4-(4-bromobenzoyl)-5-(4-chlorophenyl)-1-(furan-2-ylmethyl)-3-hydroxy-5H-pyrrol-2-one]",abolished the inhibitory activity,> 100,> 100,> 100,> 100,50,> 100,> 100,>100,> 100,,
"CCNC1=C(C(=O)c2ccc(Br)cc2)C(c2ccc(Cl)cc2)N(Cc2cccc(F)c2)C1=O (stereo not drawn) [Compound 43, 4-(4-bromobenzoyl)-5-(4-chlorophenyl)-3-(ethylamino)-1-[(3-fluorophenyl)methyl]-5H-pyrrol-2-one]",,> 100,> 100,,> 100,> 100,> 100,> 100,> 100,> 100,,
O=C(C1=C(O)C(=O)N(CCc2cc3ccccc3[nH]2)C1c1ccc(Cl)cc1)c1ccc(Br)cc1 (stereo not drawn) [Compound 37],,16 ± 8,> 100,> 100,> 100,50,3.13,6.25,8 ± 6,19 ± 6,high cytotoxic potential,
O=C(C1=C(O)C(=O)N(Cc2cccc(F)c2)C1c1ccc(Cl)cc1)c1ccc(Br)cc1 (stereo not drawn) [Compound 1],,28 ± 9,> 100,> 100,> 100,25,> 100,> 100,>100,> 100,,
O=C(C1=C(O)C(=O)N(CCc2c[nH]c3ccccc23)C1c1ccc(Cl)cc1)c1ccc(Br)cc1 (stereo not drawn) [Compound 40],,8 ± 4,> 100,> 100,> 100,12.5,> 100,> 100,93 ± 4,> 100,,
"O=C(C1=C(N2CCOCC2)C(=O)N(Cc2cccc(F)c2)C1c1ccc(Cl)cc1)c1ccc(Br)cc1 (stereo not drawn) [Compound 44, 4-(4-bromobenzoyl)-5-(4-chlorophenyl)-1-[(3-fluorophenyl)methyl]-3-(morpholin-4-yl)-5H-pyrrol-2-one]",,> 100,> 100,> 100,> 100,> 100,> 100,> 100,> 100,> 100,,
"O=C(C1=C(O)C(=O)N(Cc2cc3ccccc3[nH]2)C1c1ccc(Cl)cc1)c1ccc(Br)cc1 (stereo not drawn) [Compound 34, 4-(4-bromobenzoyl)-5-(4-chlorophenyl)-3-hydroxy-1-(1H-indol-2-ylmethyl)-5H-pyrrol-2-one]",,14 ± 9,> 100,> 100,> 100,,25,6.25,>100,> 100,,12.5
O=C(C1=C(O)C(=O)N(Cc2cc3cnccc3[nH]2)C1c1ccc(Cl)cc1)c1ccc(Br)cc1 (stereo not drawn) [Compound 36],,> 100,> 100,> 100,> 100,> 100,> 100,> 100,,48 ± 2,high cytotoxic potential,
O=C(C1=C(O)C(=O)N(Cc2cc3cc(Cl)ccc3[nH]2)C1c1ccc(Cl)cc1)c1ccc(Br)cc1 (stereo not drawn) [Compound 35],,3 ± 1,> 100,> 100,> 100,6.25,6.25,3.13,> 100,96 ± 7,,
